# Measurements from patent US6455518B2 (Novartis AG, priority 1996, dated 2002).
# What was measured:
# [1] = tested on: Spleen cells of BALB/c and CBA mice; assay: two-way mouse mixed lymphocyte reaction (3H-thymidine incorporation); assay type: cell-based; details: single compound; 3H-thymidine incorporation after four days culture
# Description: After four days, ^3H-thymidine is added. Sixteen hours later, the cells are harvested and ^3H-thymidine incorporation is measured by liquid scintillation counting. Cell proliferation is assessed in the absence of compounds (100% value) or in the presence of serially diluted compounds or combinations of compounds. The maximum ^3H thymidine incorporation (100% value) is around 240×10^3 cpm, and the background ^3H-thymidine incorporation in unstimulated cells is around 5×10^3 cpm. […] These IC70 values are converted into relative units with regard to the IC70 value of the respective single drug treatment.
# kidney allograft = assay: orthotopic kidney allotransplantation model (DA donor, Lewis recipient); assay type: in vivo, rat; details: for Histology of rejection: kidney
# Text: Kidney transplantation is followed by contralateral nephrectomy 7 days later: at nephrectomy, the graft is macroscopically inspected, and if rejection is macroscopically evident, the experiment is terminated. Surviving animals are monitored daily for clinical signs of renal dysfunction.
# (§1) In both the kidney and heart allograft experiments, the termination point in long term survivors is 100 days. In all cases, the graft is removed at autopsy, fixed in buffered formalin, and embedded in paraffin. Four micron thick sections stained with hematoxylin and eosin are read for signs of rejection and scored as “no rejection”, or “marginal”, “slight”, “moderate”, or “severe” cellular rejection based on the extent of mononuclear cell infiltration and damage to the parenchyma (tubules in the kidney, myocytes in the heart).
# heart allograft = assay: heterotopic heart allotransplantation model (DA donor, Lewis recipient); assay type: in vivo, rat
# Text: The abdomen is then palpated daily to determine if the graft is still beating; in case of cessation of heartbeat, the experiment is terminated.
# as §1
# [2] = rat, in vivo, iv
# Description: Whole blood concentrations of both compounds are determined by liquid chromatography-reversed isotope dilution (LC-RID).
# [3] = heart, 40-O-(2-hydroxyethyl)-rapamycin 5.0 mg/kg daily oral
smiles,measurement,setting,value
CO[C@H]1C[C@@H]2CC[C@@H](C)[C@@](O)(O2)C(=O)C(=O)N2CCCC[C@H]2C(=O)O[C@H]([C@H](C)C[C@@H]2CC[C@@H](OCCO)[C@H](OC)C2)CC(=O)[C@H](C)/C=C(\C)[C@@H](O)[C@@H](OC)C(=O)[C@H](C)C[C@H](C)/C=C/C=C/C=C/1C [40-O-(2-hydroxyethyl)-rapamycin],IC70 (concentration at which the maximum proliferative response is inhibited by 70%),[1],0.3 nM
same,minimum effective dose giving long term allograft survival,"kidney allograft; kidney allograft, single compound treatment, daily oral",5.0 mg/kg
same,Histology of rejection,kidney allograft; 40-O-(2-hydroxyethyl)-rapamycin 1.0 mg/kg daily oral,moderate-severe
same,Histology of rejection,kidney allograft; 40-O-(2-hydroxyethyl)-rapamycin 2.5 mg/kg daily oral,slight-moderate
same,Histology of rejection,kidney allograft; 40-O-(2-hydroxyethyl)-rapamycin 5.0 mg/kg daily oral,moderate; ≧100 marginal
same,minimum effective dose giving long term allograft survival,"heart allograft; heart allograft, single compound treatment, daily oral",> 5.0 mg/kg
same,Histology of rejection,"heart allograft; heart, 40-O-(2-hydroxyethyl)-rapamycin 1.0 mg/kg daily oral",severe
same,Histology of rejection,"heart allograft; heart, 40-O-(2-hydroxyethyl)-rapamycin 2.5 mg/kg daily oral",moderate
same,Histology of rejection,heart allograft; [3],moderate
same,Survival (days),heart allograft; [3],"22,23 days"
same,CL,[2],3.2 ± 0.3 mL/min
same,t1/2,[2],56 ± 7 h
same,V,[2]; 1 mg/kg,52 ± 3 L/kg
